Laboratory results published in ChEMBL document CHEMBL4507316 (2021).
Activity calls are given as the source filed them. No cut-off for these calls is given here.

Key:
[1] = target: Receptor-interacting serine/threonine-protein kinase 2 (Homo sapiens) (UniProt O43353); test: RIPK2 ProQinase selectivity panel; details: Compound concentration 1.0 uM
[2] = target: TGF-beta receptor type-1 (Homo sapiens) (UniProt P36897); test: TGFB-R1 ProQinase selectivity panel; details: Compound concentration 1.0 uM
[3] = target: Serine/threonine-protein kinase PLK3 (Homo sapiens) (UniProt Q9H4B4); test: PLK3 ProQinase selectivity panel; details: Compound concentration 1.0 uM
[4] = target: Casein kinase I isoform gamma-3 (Homo sapiens) (UniProt Q9Y6M4); test: CK1-gamma3 ProQinase selectivity panel; details: Compound concentration 1.0 uM
[5] = target: Mitogen-activated protein kinase kinase kinase 10 (Homo sapiens) (UniProt Q02779); test: MAP3K10 ProQinase selectivity panel; details: Compound concentration 1.0 uM
[6] = target: MAP kinase-activated protein kinase 2 (Homo sapiens) (UniProt P49137); test: MAPKAPK2 ProQinase selectivity panel; details: Compound concentration 1.0 uM
[7] = target: D(4) dopamine receptor (Homo sapiens) (UniProt P21917); details: Compound concentration 10.0 uM
[8] = target: RAC-beta serine/threonine-protein kinase (Homo sapiens) (UniProt P31751); test: AKT2 ProQinase selectivity panel; details: Compound concentration 1.0 uM
[9] = target: Protein kinase C beta type (Homo sapiens) (UniProt P05771); test: PKC-beta2 ProQinase selectivity panel; details: Compound concentration 1.0 uM
[10] = target: Serine/threonine-protein kinase D2 (Homo sapiens) (UniProt Q9BZL6); test: PRKD2 ProQinase selectivity panel; details: Compound concentration 1.0 uM
[11] = test system: Hepatocyte growth factor receptor (Homo sapiens), P08581 [F1200I]; test: MET F1200I ProQinase selectivity panel; details: Compound concentration 1.0 uM
[12] = target: Serine/threonine-protein kinase 25 (Homo sapiens) (UniProt O00506); test: STK25 ProQinase selectivity panel; details: Compound concentration 1.0 uM
[13] = test system: Hepatocyte growth factor receptor (Homo sapiens), P08581 [Y1230A]; test: MET Y1230A ProQinase selectivity panel; details: Compound concentration 1.0 uM
[14] = target: CDK1/Cyclin E (Homo sapiens) (UniProt P06493+P24864); test: CDK1/CycE ProQinase selectivity panel; assay type: protein-complex assay; details: Compound concentration 1.0 uM
[15] = target: Ephrin type-A receptor 5 (Homo sapiens) (UniProt P54756); test: EPHA5 ProQinase selectivity panel; details: Compound concentration 1.0 uM
[16] = test system: Hepatocyte growth factor receptor (Homo sapiens), P08581 [D1228H]; test: MET D1228H ProQinase selectivity panel; details: Compound concentration 1.0 uM
[17] = target: Serine/threonine-protein kinase PLK1 (Homo sapiens) (UniProt P53350); test: PLK1 ProQinase selectivity panel; details: Compound concentration 1.0 uM
[18] = target: SRSF protein kinase 3 (Homo sapiens) (UniProt Q9UPE1); test: STK23 ProQinase selectivity panel; details: Compound concentration 1.0 uM
[19] = target: Ribosomal protein S6 kinase alpha-4 (Homo sapiens) (UniProt O75676); test: RPS6KA4 ProQinase selectivity panel; details: Compound concentration 1.0 uM
[20] = target: Homeodomain-interacting protein kinase 2 (Homo sapiens) (UniProt Q9H2X6); test: HIPK2 ProQinase selectivity panel; details: Compound concentration 1.0 uM
[21] = target: Serine/threonine-protein kinase WNK2 (Homo sapiens) (UniProt Q9Y3S1); test: WNK2 ProQinase selectivity panel; details: Compound concentration 1.0 uM
[22] = target: RAC-alpha serine/threonine-protein kinase (Homo sapiens) (UniProt P31749); test: AKT1 ProQinase selectivity panel; details: Compound concentration 1.0 uM
[23] = target: Ephrin type-A receptor 4 (Homo sapiens) (UniProt P54764); test: EPHA4 ProQinase selectivity panel; details: Compound concentration 1.0 uM
[24] = target: Cyclin-dependent kinase 16 (Homo sapiens) (UniProt Q00536); test: PCTAIRE1 ProQinase selectivity panel; details: Compound concentration 1.0 uM
[25] = target: NUAK family SNF1-like kinase 1 (Homo sapiens) (UniProt O60285); test: ARK5 ProQinase selectivity panel; details: Compound concentration 1.0 uM
[26] = target: Protein kinase C alpha type (Homo sapiens) (UniProt P17252); test: PKC-alpha ProQinase selectivity panel; details: Compound concentration 1.0 uM
[27] = target: Serine/threonine-protein kinase MARK1 (Homo sapiens) (UniProt Q9P0L2); test: MARK1 ProQinase selectivity panel; details: Compound concentration 1.0 uM
[28] = target: TGF-beta receptor type-2 (Homo sapiens) (UniProt P37173); test: TGFB-R2 ProQinase selectivity panel; details: Compound concentration 1.0 uM
[29] = target: Leukocyte tyrosine kinase receptor (Homo sapiens) (UniProt P29376); test: LTK ProQinase selectivity panel; details: Compound concentration 1.0 uM
[30] = target: Protein kinase C iota type (Homo sapiens) (UniProt P41743); test: PKC-iota ProQinase selectivity panel; details: Compound concentration 1.0 uM
[31] = target: Sigma intracellular receptor 2 (Homo sapiens, UniProt Q5BJF2); test: GPCRScan assay: inhibition of Sigma 2; parameters: radioligand conc. used [nm] 5.0, parental cells HEKT
[32] = target: Cyclin-dependent kinase 2/cyclin A (Homo sapiens) (UniProt P24941+P20248+P78396); test: CDK2/CycA ProQinase selectivity panel; assay type: protein-complex assay; details: Compound concentration 1.0 uM
[33] = target: PAS domain-containing serine/threonine-protein kinase (Homo sapiens) (UniProt Q96RG2); test: PASK ProQinase selectivity panel; details: Compound concentration 1.0 uM
[34] = target: 5-hydroxytryptamine receptor 2A (Homo sapiens, UniProt P28223); test: GPCRScan assay: inhibition of 5-HT2A; parameters: radioligand conc. used [nm] 1.2 – 2.4, parental cells HEKT
[35] = target: Ribosomal protein S6 kinase beta-2 (Homo sapiens) (UniProt Q9UBS0); test: S6K-beta ProQinase selectivity panel; details: Compound concentration 1.0 uM
[36] = target: Protein kinase C epsilon type (Homo sapiens) (UniProt Q02156); test: PKC-epsilon ProQinase selectivity panel; details: Compound concentration 1.0 uM
[37] = target: Activin receptor type-1-like (Homo sapiens) (UniProt P37023); test: ACV-RL1 ProQinase selectivity panel; details: Compound concentration 1.0 uM
[38] = target: Vascular endothelial growth factor receptor 1 (Homo sapiens) (UniProt P17948); test: VEGF-R1 ProQinase selectivity panel; details: Compound concentration 1.0 uM
[39] = target: Cyclin-dependent kinase 9 (Homo sapiens) (UniProt P50750); test: CDK9/CycT ProQinase selectivity panel; details: Compound concentration 1.0 uM
[40] = target: Protein kinase C zeta type (Homo sapiens) (UniProt Q05513); test: PKC-zeta ProQinase selectivity panel; details: Compound concentration 1.0 uM
[41] = target: Phosphorylase b kinase gamma catalytic chain, skeletal muscle/heart isoform (Homo sapiens) (UniProt Q16816); test: PHKG1 ProQinase selectivity panel; details: Compound concentration 1.0 uM
[42] = target: Inhibitor of nuclear factor kappa-B kinase subunit epsilon (Homo sapiens) (UniProt Q14164); test: IKK-epsilon ProQinase selectivity panel; details: Compound concentration 1.0 uM
[43] = target: Tyrosine-protein kinase ABL1 (Homo sapiens) (UniProt P00519); test: ABL1 wt ProQinase selectivity panel; details: Compound concentration 1.0 uM
[44] = target: Serine/threonine-protein kinase NLK (Homo sapiens) (UniProt Q9UBE8); test: NLK ProQinase selectivity panel; details: Compound concentration 1.0 uM
[45] = target: Tyrosine-protein kinase JAK3 (Homo sapiens) (UniProt P52333); test: JAK3 ProQinase selectivity panel; details: Compound concentration 1.0 uM
[46] = target: Mitogen-activated protein kinase 11 (Homo sapiens, UniProt Q15759); test: NanoBRET (MAPK11)
[47] = target: SRSF protein kinase 2 (Homo sapiens) (UniProt P78362); test: SRPK2 ProQinase selectivity panel; details: Compound concentration 1.0 uM
[48] = target: Muscle, skeletal receptor tyrosine-protein kinase (Homo sapiens) (UniProt O15146); test: MUSK ProQinase selectivity panel; details: Compound concentration 1.0 uM
[49] = target: Tyrosine-protein kinase receptor TYRO3 (Homo sapiens) (UniProt Q06418); test: TYRO3 ProQinase selectivity panel; details: Compound concentration 1.0 uM

Sigma intracellular receptor 2, sequence (Q5BJF2 whole entry): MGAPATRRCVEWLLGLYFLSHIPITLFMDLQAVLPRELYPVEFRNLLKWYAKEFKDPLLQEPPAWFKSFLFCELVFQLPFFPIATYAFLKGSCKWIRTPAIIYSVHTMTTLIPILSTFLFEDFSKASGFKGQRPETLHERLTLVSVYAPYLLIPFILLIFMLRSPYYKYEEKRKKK
5-hydroxytryptamine receptor 2A, sequence (P28223 whole entry): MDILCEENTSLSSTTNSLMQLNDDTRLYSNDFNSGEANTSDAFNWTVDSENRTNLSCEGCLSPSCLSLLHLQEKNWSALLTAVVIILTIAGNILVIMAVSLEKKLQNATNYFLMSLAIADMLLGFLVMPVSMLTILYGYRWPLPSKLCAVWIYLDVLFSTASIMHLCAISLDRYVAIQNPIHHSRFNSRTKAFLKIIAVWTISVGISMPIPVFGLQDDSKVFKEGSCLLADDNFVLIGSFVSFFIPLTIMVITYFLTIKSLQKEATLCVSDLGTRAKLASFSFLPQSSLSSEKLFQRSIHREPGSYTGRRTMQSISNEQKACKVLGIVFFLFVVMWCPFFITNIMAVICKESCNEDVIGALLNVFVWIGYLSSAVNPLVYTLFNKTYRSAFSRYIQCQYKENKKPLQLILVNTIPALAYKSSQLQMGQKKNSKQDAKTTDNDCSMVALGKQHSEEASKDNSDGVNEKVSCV
Hepatocyte growth factor receptor (Homo sapiens), P08581 [D1228H], sequence (P08581 whole entry D1228H): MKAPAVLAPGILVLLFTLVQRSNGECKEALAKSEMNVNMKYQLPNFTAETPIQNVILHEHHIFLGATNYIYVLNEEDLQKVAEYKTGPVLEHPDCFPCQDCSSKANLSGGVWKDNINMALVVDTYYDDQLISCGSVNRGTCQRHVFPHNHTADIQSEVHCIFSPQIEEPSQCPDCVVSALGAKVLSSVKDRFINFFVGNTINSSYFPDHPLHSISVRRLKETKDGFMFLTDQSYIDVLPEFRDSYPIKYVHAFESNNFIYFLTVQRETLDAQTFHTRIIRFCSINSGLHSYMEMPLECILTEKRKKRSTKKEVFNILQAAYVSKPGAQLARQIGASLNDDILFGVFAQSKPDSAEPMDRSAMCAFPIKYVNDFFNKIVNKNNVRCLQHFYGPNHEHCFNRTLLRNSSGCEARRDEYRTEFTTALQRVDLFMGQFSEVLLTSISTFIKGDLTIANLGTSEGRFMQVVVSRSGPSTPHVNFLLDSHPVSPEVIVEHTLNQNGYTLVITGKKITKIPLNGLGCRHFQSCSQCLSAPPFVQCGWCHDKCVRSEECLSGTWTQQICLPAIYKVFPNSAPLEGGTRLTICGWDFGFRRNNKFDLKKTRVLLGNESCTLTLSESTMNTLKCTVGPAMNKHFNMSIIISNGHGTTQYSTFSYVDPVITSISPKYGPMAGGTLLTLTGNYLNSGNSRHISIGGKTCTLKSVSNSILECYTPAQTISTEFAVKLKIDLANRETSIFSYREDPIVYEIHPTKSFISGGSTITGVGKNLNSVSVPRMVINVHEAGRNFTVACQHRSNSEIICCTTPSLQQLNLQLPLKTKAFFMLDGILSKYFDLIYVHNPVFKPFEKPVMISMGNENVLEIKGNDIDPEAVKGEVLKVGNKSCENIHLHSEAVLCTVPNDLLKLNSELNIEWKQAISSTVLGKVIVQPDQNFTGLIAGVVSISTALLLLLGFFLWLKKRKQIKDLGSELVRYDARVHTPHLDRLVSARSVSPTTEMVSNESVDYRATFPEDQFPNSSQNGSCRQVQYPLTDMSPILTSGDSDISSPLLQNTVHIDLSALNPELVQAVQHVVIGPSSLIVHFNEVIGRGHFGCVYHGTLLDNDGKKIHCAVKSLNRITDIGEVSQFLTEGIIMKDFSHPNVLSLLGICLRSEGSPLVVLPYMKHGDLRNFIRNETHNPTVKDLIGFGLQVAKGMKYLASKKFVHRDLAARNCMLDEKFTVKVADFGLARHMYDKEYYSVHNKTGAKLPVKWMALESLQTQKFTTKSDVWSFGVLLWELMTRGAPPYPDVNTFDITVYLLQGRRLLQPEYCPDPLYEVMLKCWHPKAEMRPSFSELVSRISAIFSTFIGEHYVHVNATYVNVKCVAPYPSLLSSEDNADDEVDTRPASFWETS
CDK1/Cyclin E (Homo sapiens), sequence (P06493 whole entry, looked up): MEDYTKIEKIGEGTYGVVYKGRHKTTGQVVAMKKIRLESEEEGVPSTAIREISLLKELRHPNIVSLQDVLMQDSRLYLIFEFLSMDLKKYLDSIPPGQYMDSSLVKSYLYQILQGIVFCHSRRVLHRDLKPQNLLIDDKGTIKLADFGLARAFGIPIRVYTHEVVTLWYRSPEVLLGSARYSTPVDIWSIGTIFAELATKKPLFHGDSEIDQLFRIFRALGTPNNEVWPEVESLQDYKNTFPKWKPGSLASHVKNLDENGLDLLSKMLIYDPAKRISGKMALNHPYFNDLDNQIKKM
CDK1/Cyclin E (Homo sapiens), sequence (P24864 whole entry, looked up): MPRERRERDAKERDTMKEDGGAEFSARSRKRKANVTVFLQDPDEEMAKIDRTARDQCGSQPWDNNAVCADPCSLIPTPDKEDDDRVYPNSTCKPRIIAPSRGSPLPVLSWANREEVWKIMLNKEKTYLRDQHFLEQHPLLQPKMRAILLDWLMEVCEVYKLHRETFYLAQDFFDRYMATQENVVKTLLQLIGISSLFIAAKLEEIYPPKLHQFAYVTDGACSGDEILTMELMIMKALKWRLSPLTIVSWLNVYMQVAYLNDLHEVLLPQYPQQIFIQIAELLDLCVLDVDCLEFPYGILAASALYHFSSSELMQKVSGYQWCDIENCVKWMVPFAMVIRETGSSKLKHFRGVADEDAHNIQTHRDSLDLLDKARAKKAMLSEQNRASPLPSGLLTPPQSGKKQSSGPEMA
Phosphorylase b kinase gamma catalytic chain, skeletal muscle/heart isoform (Homo sapiens), sequence (Q16816 whole entry, looked up, canonical isoform): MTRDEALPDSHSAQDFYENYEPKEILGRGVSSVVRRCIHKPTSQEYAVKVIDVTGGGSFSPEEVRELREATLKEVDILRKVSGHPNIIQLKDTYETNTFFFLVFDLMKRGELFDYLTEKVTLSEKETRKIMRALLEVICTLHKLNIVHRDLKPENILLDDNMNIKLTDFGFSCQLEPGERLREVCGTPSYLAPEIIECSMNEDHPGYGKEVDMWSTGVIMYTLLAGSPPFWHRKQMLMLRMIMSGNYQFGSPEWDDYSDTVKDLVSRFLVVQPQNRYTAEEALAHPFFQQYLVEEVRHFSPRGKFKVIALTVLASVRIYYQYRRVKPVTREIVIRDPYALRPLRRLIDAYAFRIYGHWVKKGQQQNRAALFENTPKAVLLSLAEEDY
Muscle, skeletal receptor tyrosine-protein kinase (Homo sapiens), sequence (O15146 whole entry): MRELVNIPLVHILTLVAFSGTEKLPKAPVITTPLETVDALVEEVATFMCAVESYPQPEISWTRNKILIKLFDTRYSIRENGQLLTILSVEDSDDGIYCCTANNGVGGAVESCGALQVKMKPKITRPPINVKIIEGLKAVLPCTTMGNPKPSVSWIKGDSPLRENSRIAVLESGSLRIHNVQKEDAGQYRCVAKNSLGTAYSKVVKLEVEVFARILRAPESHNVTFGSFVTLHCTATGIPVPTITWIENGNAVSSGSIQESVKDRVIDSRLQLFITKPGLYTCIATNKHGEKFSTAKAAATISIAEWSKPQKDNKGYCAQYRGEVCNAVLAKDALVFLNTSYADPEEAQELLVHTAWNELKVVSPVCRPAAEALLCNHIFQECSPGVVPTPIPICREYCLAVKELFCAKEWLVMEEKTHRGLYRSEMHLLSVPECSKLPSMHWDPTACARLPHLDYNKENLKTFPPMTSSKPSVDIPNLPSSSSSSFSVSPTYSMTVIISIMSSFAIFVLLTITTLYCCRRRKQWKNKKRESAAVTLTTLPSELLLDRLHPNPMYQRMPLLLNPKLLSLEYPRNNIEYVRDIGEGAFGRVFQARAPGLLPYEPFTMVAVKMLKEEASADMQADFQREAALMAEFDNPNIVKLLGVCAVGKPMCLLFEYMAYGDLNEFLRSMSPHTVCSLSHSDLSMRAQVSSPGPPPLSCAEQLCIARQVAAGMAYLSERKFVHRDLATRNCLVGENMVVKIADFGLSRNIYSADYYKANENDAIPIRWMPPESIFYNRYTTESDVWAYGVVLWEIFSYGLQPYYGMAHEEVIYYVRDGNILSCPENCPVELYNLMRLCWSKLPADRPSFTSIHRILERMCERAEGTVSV
Inhibitor of nuclear factor kappa-B kinase subunit epsilon (Homo sapiens), sequence (Q14164 whole entry): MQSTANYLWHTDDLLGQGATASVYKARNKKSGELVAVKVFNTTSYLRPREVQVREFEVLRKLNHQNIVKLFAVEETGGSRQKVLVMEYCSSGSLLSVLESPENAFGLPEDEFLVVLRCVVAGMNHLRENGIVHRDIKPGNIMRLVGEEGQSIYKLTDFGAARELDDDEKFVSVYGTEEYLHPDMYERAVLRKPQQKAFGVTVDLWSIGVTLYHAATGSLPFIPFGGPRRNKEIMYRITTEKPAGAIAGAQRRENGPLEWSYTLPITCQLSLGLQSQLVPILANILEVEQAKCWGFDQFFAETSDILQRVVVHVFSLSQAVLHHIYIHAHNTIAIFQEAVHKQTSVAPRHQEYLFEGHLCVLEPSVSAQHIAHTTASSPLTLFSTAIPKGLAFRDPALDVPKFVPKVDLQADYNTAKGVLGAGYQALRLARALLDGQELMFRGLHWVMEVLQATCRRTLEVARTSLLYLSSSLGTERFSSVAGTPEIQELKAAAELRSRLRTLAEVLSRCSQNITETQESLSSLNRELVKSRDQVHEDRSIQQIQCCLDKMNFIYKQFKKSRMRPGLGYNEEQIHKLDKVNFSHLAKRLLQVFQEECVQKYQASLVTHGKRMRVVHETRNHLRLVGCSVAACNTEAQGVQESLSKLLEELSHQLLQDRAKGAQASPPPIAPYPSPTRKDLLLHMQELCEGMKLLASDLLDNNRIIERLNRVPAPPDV

% Residual activity with Skepinone-L [1]: 77%
% Residual activity with Skepinone-L [2]: 93%
% Residual activity with Skepinone-L [3]: 99%
% Residual activity with Skepinone-L [4]: 95%
% Residual activity with Skepinone-L [5]: 101%
% Residual activity with Skepinone-L [6]: 80%
inhibition [7]: 9.38%
% Residual activity with Skepinone-L [8]: 121%
% Residual activity with Skepinone-L [9]: 97%
% Residual activity with Skepinone-L [10]: 85%
% Residual activity with Skepinone-L [11]: 96%
% Residual activity with Skepinone-L [12]: 100%
% Residual activity with Skepinone-L [13]: 91%
% Residual activity with Skepinone-L [14]: 87%
% Residual activity with Skepinone-L [15]: 132%
% Residual activity with Skepinone-L [16]: 97%
% Residual activity with Skepinone-L [17]: 97%
% Residual activity with Skepinone-L [18]: 96%
% Residual activity with Skepinone-L [19]: 107%
% Residual activity with Skepinone-L [20]: 104%
% Residual activity with Skepinone-L [21]: 95%
% Residual activity with Skepinone-L [22]: 102%
% Residual activity with Skepinone-L [23]: 93%
% Residual activity with Skepinone-L [24]: 79%
% Residual activity with Skepinone-L [25]: 115%
% Residual activity with Skepinone-L [26]: 96%
% Residual activity with Skepinone-L [27]: 88%
% Residual activity with Skepinone-L [28]: 77%
% Residual activity with Skepinone-L [29]: 97%
% Residual activity with Skepinone-L [30]: 91%
Ki ([31]; read-out: Ki): 3.36 µM
Ki ([31]; read-out: pKi (converted)): 3.24 µM
% Residual activity with Skepinone-L [32]: 101%
% Residual activity with Skepinone-L [33]: 88%
Ki ([34]; read-out: Ki): 3.71 µM
Ki ([34]; read-out: pKi (converted)): 3.39 µM
% Residual activity with Skepinone-L [35]: 89%
% Residual activity with Skepinone-L [36]: 99%
% Residual activity with Skepinone-L [37]: 105%
% Residual activity with Skepinone-L [38]: 113%
% Residual activity with Skepinone-L [39]: 103%
% Residual activity with Skepinone-L [40]: 109%
% Residual activity with Skepinone-L [41]: 93%
% Residual activity with Skepinone-L [42]: 103%
% Residual activity with Skepinone-L [43]: 95%
% Residual activity with Skepinone-L [44]: 87%
% Residual activity with Skepinone-L [45]: 103%
IC50 [46]: 0.0402 µM (active)
% Residual activity with Skepinone-L [47]: 101%
% Residual activity with Skepinone-L [48]: 106%
% Residual activity with Skepinone-L [49]: 108%
SMILES: O=C1c2ccc(Nc3ccc(F)cc3F)cc2CCc2ccc(OC[C@H](O)CO)cc21 [Skepinone-L]
